Laboratory results published in US20150087627A1, “COMBINATION OF KINASE INHIBITORS AND USES THEREOF” (Intellikine LLC, priority 2011, published 2015).

Columns and labels:
Format in all cases: biochemical
[1] = target: T1, PI3K δ (Homo sapiens, UniProt O00329); experiment: PI 3-Kinase (human) HTRF assay, PI3K δ; conditions: read-out: PI3K δ IC50
T1 construct: purchased Upstate / Millipore Corporation

[2] = target: T2, PI3K β (p110β/p85α) (Homo sapiens, UniProt P42338); experiment: PI 3-Kinase (human) HTRF assay, PI3K β; conditions: read-out: PI3K β IC50
T2 construct: purchased Upstate / Millipore Corporation
T2 sequence (P42338 whole entry): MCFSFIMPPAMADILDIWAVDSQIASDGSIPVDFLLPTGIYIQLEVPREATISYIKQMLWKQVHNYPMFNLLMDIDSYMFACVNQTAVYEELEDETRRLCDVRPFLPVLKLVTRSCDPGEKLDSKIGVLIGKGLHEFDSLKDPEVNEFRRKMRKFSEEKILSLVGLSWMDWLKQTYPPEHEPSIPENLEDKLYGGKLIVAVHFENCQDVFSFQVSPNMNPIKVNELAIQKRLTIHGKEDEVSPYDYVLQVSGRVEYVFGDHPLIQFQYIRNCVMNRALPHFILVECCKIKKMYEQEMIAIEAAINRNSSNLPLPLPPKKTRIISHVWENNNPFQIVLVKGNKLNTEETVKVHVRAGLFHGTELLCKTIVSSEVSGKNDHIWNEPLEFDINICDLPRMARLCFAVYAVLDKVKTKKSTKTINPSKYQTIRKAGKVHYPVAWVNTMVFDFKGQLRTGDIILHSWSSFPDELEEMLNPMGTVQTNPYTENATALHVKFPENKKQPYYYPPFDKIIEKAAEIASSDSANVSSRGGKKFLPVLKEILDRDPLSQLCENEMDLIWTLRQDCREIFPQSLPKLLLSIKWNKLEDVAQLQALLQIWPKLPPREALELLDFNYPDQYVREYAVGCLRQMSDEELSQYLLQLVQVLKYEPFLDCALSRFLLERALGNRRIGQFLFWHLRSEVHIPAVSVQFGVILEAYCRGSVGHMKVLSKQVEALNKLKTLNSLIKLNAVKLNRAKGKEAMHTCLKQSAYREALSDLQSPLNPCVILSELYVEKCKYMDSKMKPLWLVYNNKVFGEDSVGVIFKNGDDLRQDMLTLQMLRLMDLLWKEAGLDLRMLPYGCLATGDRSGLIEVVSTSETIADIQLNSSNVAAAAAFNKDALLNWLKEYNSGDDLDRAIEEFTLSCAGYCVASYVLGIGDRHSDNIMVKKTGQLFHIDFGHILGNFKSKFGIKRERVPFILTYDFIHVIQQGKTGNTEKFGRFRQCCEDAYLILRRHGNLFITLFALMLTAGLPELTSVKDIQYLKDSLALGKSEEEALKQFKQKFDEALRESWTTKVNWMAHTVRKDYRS
T2 sequence (P27986 whole entry partner): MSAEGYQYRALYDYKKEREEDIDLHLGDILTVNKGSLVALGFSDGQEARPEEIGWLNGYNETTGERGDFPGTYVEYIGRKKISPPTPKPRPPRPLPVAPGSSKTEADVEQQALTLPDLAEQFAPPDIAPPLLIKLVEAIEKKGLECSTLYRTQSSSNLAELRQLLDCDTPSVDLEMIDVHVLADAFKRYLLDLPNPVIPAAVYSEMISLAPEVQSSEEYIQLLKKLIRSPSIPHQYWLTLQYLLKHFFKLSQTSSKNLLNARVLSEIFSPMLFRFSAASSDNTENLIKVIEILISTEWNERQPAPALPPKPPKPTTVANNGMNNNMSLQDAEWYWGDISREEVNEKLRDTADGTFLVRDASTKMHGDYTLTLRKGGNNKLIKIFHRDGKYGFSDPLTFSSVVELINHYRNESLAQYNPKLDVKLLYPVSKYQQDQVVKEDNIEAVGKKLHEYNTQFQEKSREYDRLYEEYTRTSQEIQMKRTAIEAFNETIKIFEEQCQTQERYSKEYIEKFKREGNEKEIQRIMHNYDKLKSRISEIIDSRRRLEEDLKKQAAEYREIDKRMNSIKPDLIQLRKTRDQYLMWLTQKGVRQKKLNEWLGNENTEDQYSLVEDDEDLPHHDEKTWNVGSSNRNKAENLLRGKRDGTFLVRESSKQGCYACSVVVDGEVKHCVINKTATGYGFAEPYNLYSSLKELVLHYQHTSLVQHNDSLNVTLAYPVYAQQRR

[3] = target: T3, PI3K γ (p110γ) (Homo sapiens, UniProt P48736); experiment: PI 3-Kinase (human) HTRF assay, PI3K γ; conditions: read-out: PI3K γ IC50
T3 construct: purchased Upstate / Millipore Corporation
T3 sequence (P48736 whole entry): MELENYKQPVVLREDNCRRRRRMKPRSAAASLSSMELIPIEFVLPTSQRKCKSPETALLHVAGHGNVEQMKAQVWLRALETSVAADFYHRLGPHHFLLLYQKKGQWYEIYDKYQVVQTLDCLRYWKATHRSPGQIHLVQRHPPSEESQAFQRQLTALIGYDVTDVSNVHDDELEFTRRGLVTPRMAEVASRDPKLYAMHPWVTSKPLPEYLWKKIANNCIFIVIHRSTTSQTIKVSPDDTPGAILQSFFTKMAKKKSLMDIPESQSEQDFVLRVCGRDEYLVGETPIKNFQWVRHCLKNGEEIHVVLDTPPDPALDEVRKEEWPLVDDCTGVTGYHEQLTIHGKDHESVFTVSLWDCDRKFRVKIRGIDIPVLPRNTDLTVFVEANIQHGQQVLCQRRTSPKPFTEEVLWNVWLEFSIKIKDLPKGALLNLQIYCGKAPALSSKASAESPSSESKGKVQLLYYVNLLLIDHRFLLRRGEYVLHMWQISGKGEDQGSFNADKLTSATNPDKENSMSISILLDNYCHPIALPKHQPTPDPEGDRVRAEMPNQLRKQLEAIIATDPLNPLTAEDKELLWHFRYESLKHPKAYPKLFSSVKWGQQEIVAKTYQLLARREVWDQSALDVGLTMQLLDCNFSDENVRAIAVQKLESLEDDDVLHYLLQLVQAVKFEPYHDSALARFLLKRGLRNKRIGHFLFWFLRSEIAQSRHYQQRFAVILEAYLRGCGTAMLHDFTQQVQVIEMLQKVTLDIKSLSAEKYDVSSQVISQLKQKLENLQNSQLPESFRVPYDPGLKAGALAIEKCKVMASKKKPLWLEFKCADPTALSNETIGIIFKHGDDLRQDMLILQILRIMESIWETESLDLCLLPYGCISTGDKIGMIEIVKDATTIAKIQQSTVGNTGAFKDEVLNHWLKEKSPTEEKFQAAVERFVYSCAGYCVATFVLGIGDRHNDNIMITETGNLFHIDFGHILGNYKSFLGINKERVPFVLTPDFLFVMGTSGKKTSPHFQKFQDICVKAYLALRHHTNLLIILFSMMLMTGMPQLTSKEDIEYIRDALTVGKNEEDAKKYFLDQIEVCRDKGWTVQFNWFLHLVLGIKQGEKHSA

[4] = target: T4, PI3K α (p110α/p85α) (Homo sapiens, UniProt P42336); experiment: PI 3-Kinase (human) HTRF assay, PI3K α; conditions: read-out: PI3K α IC50
T4 construct: purchased Upstate / Millipore Corporation
T4 sequence (P42336 whole entry): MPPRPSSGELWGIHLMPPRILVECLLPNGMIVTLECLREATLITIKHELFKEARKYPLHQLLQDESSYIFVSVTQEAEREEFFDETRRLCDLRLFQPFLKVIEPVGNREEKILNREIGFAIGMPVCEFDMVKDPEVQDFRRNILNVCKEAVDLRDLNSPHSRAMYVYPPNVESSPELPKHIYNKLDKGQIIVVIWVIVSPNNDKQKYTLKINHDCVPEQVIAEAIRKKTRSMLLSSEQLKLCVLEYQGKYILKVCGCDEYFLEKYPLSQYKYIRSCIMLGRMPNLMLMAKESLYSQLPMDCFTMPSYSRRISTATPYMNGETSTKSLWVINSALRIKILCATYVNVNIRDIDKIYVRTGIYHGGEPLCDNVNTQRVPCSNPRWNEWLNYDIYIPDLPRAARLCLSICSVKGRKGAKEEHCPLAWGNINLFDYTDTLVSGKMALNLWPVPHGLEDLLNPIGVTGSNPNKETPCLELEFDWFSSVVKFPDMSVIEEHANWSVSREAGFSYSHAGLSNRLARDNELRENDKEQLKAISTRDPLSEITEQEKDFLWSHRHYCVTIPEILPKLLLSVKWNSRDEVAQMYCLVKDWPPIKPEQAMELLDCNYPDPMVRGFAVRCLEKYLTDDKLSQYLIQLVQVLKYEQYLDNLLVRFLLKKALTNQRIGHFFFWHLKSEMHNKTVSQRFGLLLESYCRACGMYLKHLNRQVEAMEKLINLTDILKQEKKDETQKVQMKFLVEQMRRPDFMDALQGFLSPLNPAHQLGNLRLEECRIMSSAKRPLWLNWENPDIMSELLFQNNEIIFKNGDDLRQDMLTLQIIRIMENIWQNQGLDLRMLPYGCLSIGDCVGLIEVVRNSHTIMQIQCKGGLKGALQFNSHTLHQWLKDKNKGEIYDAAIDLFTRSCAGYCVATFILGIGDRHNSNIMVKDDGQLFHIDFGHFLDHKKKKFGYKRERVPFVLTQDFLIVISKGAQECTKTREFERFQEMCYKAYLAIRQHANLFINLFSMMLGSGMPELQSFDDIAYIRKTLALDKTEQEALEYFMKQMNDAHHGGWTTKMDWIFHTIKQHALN
T4 sequence (P27986 whole entry partner): as the sequence (P27986 whole entry partner) above

T1 sequence (O00329 whole entry): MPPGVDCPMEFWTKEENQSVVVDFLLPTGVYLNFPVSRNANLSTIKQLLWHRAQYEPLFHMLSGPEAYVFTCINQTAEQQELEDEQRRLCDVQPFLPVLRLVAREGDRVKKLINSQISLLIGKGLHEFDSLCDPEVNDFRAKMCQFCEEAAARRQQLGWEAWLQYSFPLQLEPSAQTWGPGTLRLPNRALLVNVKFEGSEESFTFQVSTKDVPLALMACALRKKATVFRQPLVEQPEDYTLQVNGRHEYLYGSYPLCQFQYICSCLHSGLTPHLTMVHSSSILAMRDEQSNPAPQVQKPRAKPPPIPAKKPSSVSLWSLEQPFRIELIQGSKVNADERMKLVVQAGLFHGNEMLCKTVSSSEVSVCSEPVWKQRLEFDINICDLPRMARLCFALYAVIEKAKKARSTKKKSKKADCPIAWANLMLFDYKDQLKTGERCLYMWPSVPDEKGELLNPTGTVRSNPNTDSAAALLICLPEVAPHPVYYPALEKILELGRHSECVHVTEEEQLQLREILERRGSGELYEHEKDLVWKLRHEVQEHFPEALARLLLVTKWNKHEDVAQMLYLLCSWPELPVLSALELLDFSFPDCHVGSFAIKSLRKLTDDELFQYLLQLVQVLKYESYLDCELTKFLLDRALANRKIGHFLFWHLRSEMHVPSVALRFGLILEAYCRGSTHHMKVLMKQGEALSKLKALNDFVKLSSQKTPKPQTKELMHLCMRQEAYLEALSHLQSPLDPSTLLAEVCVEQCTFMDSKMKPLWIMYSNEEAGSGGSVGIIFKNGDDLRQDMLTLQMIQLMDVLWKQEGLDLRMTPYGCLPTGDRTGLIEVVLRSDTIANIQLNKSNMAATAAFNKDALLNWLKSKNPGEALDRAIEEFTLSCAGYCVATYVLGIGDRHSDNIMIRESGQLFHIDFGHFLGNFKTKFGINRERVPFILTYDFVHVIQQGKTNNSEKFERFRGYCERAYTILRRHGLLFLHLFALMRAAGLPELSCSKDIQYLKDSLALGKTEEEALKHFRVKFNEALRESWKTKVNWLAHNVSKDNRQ
T1 sequence (P27986 whole entry partner): as the sequence (P27986 whole entry partner) above

SMILES	IC50 [1] [µM]	IC50 [2] [µM]	IC50 [3] [µM]	IC50 [4] [µM]
NC(=O)[C@@H]1CCCN1C(=O)c1cnc2ccc(-c3ccc4oc(N)nc4c3)cn12 [Compound 259]	> 10	> 10	< 10	< 1
Nc1nc2cc(-c3ccc4ncc(C(=O)N5CCN(C6CC6)CC5)n4c3)ccc2o1 [Compound 263]	< 10	< 10	< 10	< 0.1
Nc1nc2cc(-c3ccc4ncc(C(=O)N5CC(N6CCOCC6)C5)n4c3)ccc2o1 [Compound 266]	< 1	< 10	< 1	< 0.1
C[C@H]1CN(C(=O)C2CN(c3cnc4ccc(-c5ccc6oc(N)nc6c5)cc4n3)C2)CCN1 [Compound 268]	< 10	< 10	< 1	< 0.1
Nc1nc2cc(-c3ccc4ncn(CCCN5CCCC5)c(=O)c4c3)ccc2o1 [Compound 271]	< 10	< 10	> 10	< 1
COCCn1cnc2ccc(-c3ccc4oc(N)nc4c3)cc2c1=O [Compound 272]	> 10	< 10	< 10	< 1
CN1CCN(CCNc2cnc3ccc(-c4ccc5oc(N)nc5c4)cc3n2)CC1 [Compound 275]	< 1	< 1	< 1	< 0.1
Nc1nc2cc(-c3ccc4ncc(N5CCN(C(=O)CN6CCCC6)CC5)nc4c3)ccc2o1 [Compound 278]	< 10	< 1	< 1	< 0.1
CCN(CC)CC(=O)N1CCN(c2cnc3ccc(-c4ccc5oc(N)nc5c4)cc3n2)CC1 [Compound 279]	< 10	< 10	< 10	< 0.1
CN1CCN(CCn2cnc3ccc(-c4ccc5oc(N)nc5c4)cc3c2=O)CC1 [Compound 280]	> 10	> 10	> 10	< 10
CC(C)N1CCN(C(=O)C2CN(c3cnc4ccc(-c5ccc6oc(N)nc6c5)cc4n3)C2)CC1 [Compound 285]	< 1	< 10	< 1	< 0.1
Nc1nc2cc(-c3ccc4ncc(N5CCN(C(=O)C6(N)CCC6)CC5)nc4c3)ccc2o1 [Compound 286]	< 1	< 1	< 0.1	< 0.1
Nc1nc2cc(-c3ccc4ncc(N5CC(C(=O)N6CCN(CC7CC7)CC6)C5)nc4c3)ccc2o1 [Compound 287]	< 1	< 10	< 1	< 0.1
Nc1nc2cc(-c3ccc4ncc(C(=O)NCCCN5CCOCC5)n4c3)ccc2o1 [Compound 288]	< 1	< 1	< 10	< 1
Nc1nc2cc(-c3ccc4ncn(CCN5CCOCC5)c(=O)c4c3)ccc2o1 [Compound 289]	> 10	< 10	< 1	< 1
Nc1nc2cc(-c3ccc4ncn(CCCN5CCOCC5)c(=O)c4c3)ccc2o1 [Compound 290]	> 10	> 10	> 10	< 1
CN1CCN(CCCn2cnc3ccc(-c4ccc5oc(N)nc5c4)cc3c2=O)CC1 [Compound 291]	> 10	> 10	> 10	< 1
CN(C)CCn1cnc2ccc(-c3ccc4oc(N)nc4c3)cc2c1=O [Compound 292]	> 10	> 10	> 10	< 10
Nc1nc2cc(-c3ccc4ncc(C(=O)NCCCN5CCCC5)n4c3)ccc2o1 [Compound 293]	< 0.1	< 1	< 1	< 0.1
CCN(CC)CCNC(=O)c1cnc2ccc(-c3ccc4oc(N)nc4c3)cn12 [Compound 295]	< 1	< 1	< 1	< 1
Cc1ccn(C2CCN(C(=O)c3cnc4ccc(-c5ccc6oc(N)nc6c5)cn34)CC2)n1 [Compound 297]	> 10	> 10	< 10	< 1
Nc1nc2cc(-c3ccc4ncc(N5CCN(C(=O)[C@H](N)CO)CC5)nc4c3)ccc2o1 [Compound 299]	< 0.1	< 1	< 0.1	< 0.1
Nc1nc2ccc(-c3ccc4nnc(-c5cccnc5)n4c3)cc2o1 [Compound 301]	> 10	< 10	> 10	< 10
CCN(CC)CCCNC(=O)c1cnc2ccc(-c3ccc4oc(N)nc4c3)cn12 [Compound 302]	< 0.1	< 10	< 10	< 1
Nc1nc2ccc(-c3ccc4nnc(C(=O)N5CCCC5)n4c3)cc2o1 [Compound 305]	> 10	> 10	> 10	< 10
